Experimental data as given in paper PMC6829886, “Inhibition of Non-Small Cell Lung Cancer Cells by Oxy210, an Oxysterol-Derivative that Antagonizes TGFβ and Hedgehog Signaling” (Cells, 2019).

How the values were obtained:
[1] = tested on: TGFβ signaling in NIH3T3-E1 cells; test: TGFβ target gene expression (Q-RT-PCR) in NIH3T3 cells; format: cell-based, mouse; conditions: NIH3T3 cells, TGFβ 20 ng/mL
Procedure: (§1) Total RNA was extracted with the RNeasy Plus Mini Kit from Qiagen (Hilden, Germany) according to the manufacturer’s instructions. One microgram of RNA was reverse-transcribed using an iScript Reverse Transcription Supermix from Bio-Rad Laboratories (Hercules, CA, USA) to make single-stranded cDNA. The cDNAs were then mixed with Qi SYBR Green Supermix (Bio-Rad) for quantitative RT-PCR assay using a Bio-Rad I-cycler IQ quantitative thermocycler. All PCR samples were prepared in triplicate wells in a 96-well plate. After 40 cycles of PCR, melt curves were examined in order to ensure primer specificity. Fold changes in gene expression were calculated using the ΔΔCt method. Primers used for mouse were as follows: Oaz1 (5′-CCACTGCTTCGCCAGAGAG-3′) and (5′-CCCGGACCCAGGTTACTA-3′), Gli1 (5′- […]-3′ and 5′- GCT GATCCAGCCTAAGGTTCTC-3′), Ptch1 (5′-CCATCGGCGACAAGAACC-3′ and 5′-[…]-3′), Thbs1 (5′-[…]-3′ and 5′-CGGGGATCAGGTTGGCATT-3′), Cryab (5′-[…]-3′ and 5′-[…]-3′), Egr2 (5′-[…]-3′ and 5′-[…]-3′), CTGF (5′-GGGCCTCTTCTGCGATTTC-3′ and 5′-[…]-3′).
Figure 4 Inhibition of ligand-induced Hedgehog and TGFβ signaling in mouse fibroblast cells. NIH3T3 cells were pretreated for 2 h with Oxy210 or various inhibitors as indicated in DMEM containing 5% FBS. Next, cells were treated with CAPAN-1 conditioned medium (CM) in the absence or presence of oxysterols or inhibitors. After 72 h, RNA was extracted and analyzed by Q-RT-PCR for the expression of Hh target genes Gli1 and Ptch1 and normalized to Oaz1 expression (a,b). (c,e) NIH3T3 cells were treated in DMEM containing 0.1% BCS overnight and then pretreated for 2 h with the inhibitors as indicated in DMEM containing 0.1%BCS. The cells were then treated with TGFβ (20ng/mL) in the absence or presence of the compounds. After 48 h, RNA was extracted and analyzed by Q-RT-PCR for the expression of TGFβ target genes as indicated and normalized to Oaz1 expression. (d) NIH3T3 cells cultured in 24 well-plates were transfected with a Smad response element reporter (SBE-Luciferase) plasmid and a pTK-Renilla-Luciferase plasmid. 6 hrs after transfection, cells were treated with the test agents as indicated for 48 hrs. Luciferase activity was measured and normalized to the Renilla luciferase activity. Data from a representative experiment are reported as the mean of triplicate determinations ± SD (** p < 0.01 vs. CM (a,b) or TGFβ (c,d and e) treated cells; ## p < 0.01 vs. control).

[2] = tested on: Hh pathway target genes Gli1 and Hip in Sufu-/- MEFs; test: Hh target gene expression in Sufu-/- mouse embryonic fibroblasts; format: cell-based; conditions: 72 h
Procedure: as §1
Figure 5 Oxy210 acts downstream of Smo. (a) Sufu-/- MEF cells were treated with DMEM containing 5% FBS in the presence or absence of Oxy210. After 72 h, RNA was extracted and analyzed by Q-RT-PCR for the expression of Hh target genes Gli1 and Hip, normalized to Oaz1 expression. […] Luciferase activity was measured and normalized to the Renilla luciferase activity. […]

Structure (SMILES): C[C@]12CC[C@H]3[C@@H](CC=C4C[C@@H](O)CC[C@@]43C)[C@@H]1CC[C@@H]2[C@](C)(O)CCc1cccnc1 [Oxy210, (3S,8S,9S,10R,13S,14S,17S)-17-((R)-2-hydroxy-4-(pyridin-3-yl)butan-2-yl)-10,13-dimethyl-2,3,4,7,8,9,10,11,12,13,14,15,16,17-tetradecahydro-1H-cyclopenta[a]phenanthren-3-ol]
- expression of TGFβ target genes CTGF, Egr2, Thbs1 and Cryab ([1]; 48 h): strongly inhibited
- expression of CTGF induced by TGFβ ([1]; 48 h (Figure 4e)): robustly inhibited
- high baseline expression of Hh pathway target genes Gli1 and Hip [2]: significant inhibition
